Publication PMC12480552 (Scientific Reports, 2025)
“And” between values parts separate entries of the source, which are not always exact repeats. Identical values can stand only once. Like-named read-outs stand apart in the source and are kept apart here.

Assays:
[1] = cited from earlier work
[2] = oral dosing in NHPs; ref data not reported; cited from earlier work
[3] = cited from earlier work; remark: listed apart in the source
[4] = MALDI MSI of brain sections, biodistribution in healthy nonhuman primates; conditions: for concentration at 4 h: male, rhesus monkey, oral, 6 mg/kg
Protocol: Animals were randomized using the GSK Randomization App 2.0, which is an internal software tool that uses the ‘sample’ function in R to randomly shuffle animal IDs, then assigns them to treatment groups to ensure unbiased allocation.
Before each dose, animals were lightly sedated with an intramuscular injection of ketamine (5–10 mg/kg), and a blood sample was drawn. […] NHPs were euthanized by administering an overdose of injected sodium pentobarbital IV (150–200 mg/kg) and confirmed by thoracotomy and exsanguination. Terminal plasma, cerebrospinal fluid, and brain tissue were collected at necropsy. […] The brain was cut into six roughly 1-cm thick coronal segments before snap-freezing by floating on liquid nitrogen. The right hemispheres of the four interior coronal brain segments were cryosectioned and analyzed by matrix-assisted laser desorption/ionization mass spectrometry imaging (MALDI MSI) to quantitatively assess the tissue distribution of the dosed compounds[40]–[43]. After MALDI MSI analysis, tissue sections were stained with hematoxylin and eosin (H&E) for correlation of ion images with underlying tissue histology.
For both the nonhuman primate (NHP) and mouse metastases model studies, brain tissue sections of 6-µm thickness were prepared on a Leica CM1950 cryostat (Leica Biosystems, Danvers, MA). For the NHP study, tissue sections were collected from four of the coronal brain segments from each animal. From each coronal segment, three tissue sections were collected for MALDI MSI, one section for hematoxylin and eosin (H&E) staining, and roughly 30 sections were collected into a pre-weighed vial for homogenization and liquid chromatography–tandem mass spectrometry (LC-MS/MS) bioanalysis. The three sections for MALDI MSI were thaw-mounted onto double-width indium tin oxide–coated slides (BigSlides; Bruker Daltonics, Billerica, MA) that had been pretreated with a poly-L-lysine solution to improve tissue adherence. The section for H&E staining was thaw-mounted onto a standard double-width glass microscope slide.
A gelatin cast of the mimetic model was prepared by pipetting a warmed (50 °C) 15% gelatin solution into a tissue microarray mold (Arraymold kit C, 4 mm, 15 cores; Arraymold, Ogden, UT). The gelatin cast was then frozen overnight at (− 20 °C). Bulk homogenate of control rat brain tissue was prepared using an Omni Bead Ruptor Elite bead mill homogenizer (Omni International, Kennesaw, GA). […] The gelatin cast was warmed to room temperature, and the spiked homogenates were pipetted into each of the individual wells. The cast and homogenate were then frozen by floating on liquid nitrogen and stored at − 80 °C. Cryosections (6-µm thickness) of the mimetic tissue model were then collected on the same slide as the sample tissue to be quantified.
Slides were coated with a TM Sprayer (HTX Technologies, Chapel Hill, NC) using the following parameters: 0.1-mL/min flowrate, 70 °C, 3-mm track spacing with CC pattern, and 8 passes.
MALDI MSI was performed on either a Bruker ScimaX (7T) or a Bruker SolariX (7T) FT-ICR mass spectrometer. […] Both narrowband and CASI windows were centered between parent and internal standard m/z. The small laser focus was used with 200 laser shots per position, and the laser power was adjusted in accordance with a quality control sample acquired just before initiating the imaging sequence.
After MALDI MSI acquisition, slides were immersed in 100% ethanol for 5 min to remove the MALDI matrix. Slides were then stained with H&E and digitally scanned. Ion images were loaded into flexImaging (Bruker Daltonics), the post–MALDI H&E image was coregistered, and key regions of interest (ROIs) for the tissue and mimetic model were drawn. […] This stipulation was implemented to avoid internal standard normalization of noise, which can introduce artifactual distributions.

[5] = parameters: method as in earlier work; conditions: humans, multiple-dose oral administration; cited from earlier work

In the case of NC(=O)c1cccc2cn(-c3ccc([C@@H]4CCCNC4)cc3)nc12 [Niraparib], the cell membrane permeability [1] is given as “high”, the “plasma time to peak drug concentration (Tmax)” value [2] is given as “≈ 4 h” and the “Kp, brain” value ([3]; P-gp knockout mice) is given as 1.20. For the same compound, the “Kp, brain” value ([3]; P-gp/BCRP knockout mice) was 1.46, the “Kp, brain” value ([3]; wild-type mice) was 0.20 and the “MALDI MSI Brain sections, mean (SD)” value ([4]; healthy rhesus macaques, individual animals, oral once daily 5 days, niraparib 6 mg/kg (4 h after last dose), olaparib 10 mg/kg (2–2.5 h), total concentration, LOD 20 ng/g niraparib, 70 ng/g olaparib) was 283 (69) ng/g and 684 (189) ng/g. For the same compound, the concentration at 4 h ([4]; brain (coronal Region 1 sections), MALDI MSI Mean Conc. by brain region, NHP-1, Region 1, 3 sections, Fig. 1B) was 268 ng/g, the concentration at 4 h ([4]; brain (coronal Region 1 sections), MALDI MSI Mean Conc. by brain region, NHP-2, Region 1, 3 sections, Fig. 1B) was 524 ng/g and the concentration at 4 h ([4]; brain (coronal Region 2 sections), MALDI MSI Mean Conc. by brain region, NHP-1, Region 2, 3 sections, Fig. 1B) was 287 ng/g. It also gave a concentration at 4 h ([4]; brain (coronal Region 2 sections), MALDI MSI Mean Conc. by brain region, NHP-2, Region 2, 3 sections, Fig. 1B) of 610 ng/g, a concentration at 4 h ([4]; brain (coronal Region 3 sections), MALDI MSI Mean Conc. by brain region, NHP-1, Region 3, 3 sections, Fig. 1B) of 217 ng/g and a concentration at 4 h ([4]; brain (coronal Region 3 sections), MALDI MSI Mean Conc. by brain region, NHP-2, Region 3, 3 sections, Fig. 1B) of 822 ng/g. The concentration at 4 h ([4]; brain (coronal Region 4 sections), MALDI MSI Mean Conc. by brain region, NHP-1, Region 4, 3 sections, Fig. 1B) was 362 ng/g, the concentration at 4 h ([4]; brain (coronal Region 4 sections), MALDI MSI Mean Conc. by brain region, NHP-2, Region 4, 3 sections, Fig. 1B) was 781 ng/g and the concentration at 4 h ([4]; brain blood vessel, Niraparib Mean Conc. in histological ROI, NHP-1, Blood Vessel, Fig. 1D) was 779 ng/g. It also gave a concentration at 4 h ([4]; brain blood vessel, Niraparib Mean Conc. in histological ROI, NHP-2, Blood Vessel, Fig. 1D) of 1210 ng/g, a concentration at 4 h ([4]; brain gray matter, Niraparib Mean Conc. in histological ROI, NHP-1, Gray Matter, Fig. 1D) of 292 ng/g and a concentration at 4 h ([4]; brain gray matter, Niraparib Mean Conc. in histological ROI, NHP-2, Gray Matter, Fig. 1D) of 743 ng/g. For the same compound, the concentration at 4 h ([4]; brain parenchyma, mean unbound niraparib concentration in the brain parenchyma, healthy rhesus macaques, estimated from MALDI MSI) was roughly 15 ng/g, the concentration at 4 h ([4]; brain ventricle, Niraparib Mean Conc. in histological ROI, NHP-1, Ventricle, Fig. 1D) was 3360 ng/g and the concentration at 4 h ([4]; brain ventricle, Niraparib Mean Conc. in histological ROI, NHP-2, Ventricle, Fig. 1D) was 4830 ng/g. It also gave a concentration at 4 h ([4]; brain white matter, Niraparib Mean Conc. in histological ROI, NHP-1, White Matter, Fig. 1D) of 177 ng/g and a concentration at 4 h ([4]; brain white matter, Niraparib Mean Conc. in histological ROI, NHP-2, White Matter, Fig. 1D) of 350 ng/g.

For O=C(c1cc(Cc2n[nH]c(=O)c3ccccc23)ccc1F)N1CCN(C(=O)C2CC2)CC1 [Olaparib], the Tmax [5] is given as 1 to 3 h.
